Results from patent US20060063784A1, “Method of using substituted pyrazolo [1,5-a] pyrimidines” (priority 2004, published 2006).
Like-named read-outs stand apart in the source and are kept apart here.

Test system: 80S14 (p21-deficient) cells
Test: Cytotoxicity assay using isogenic cell lines: IC50 in 80S14 (p21-deficient) cells, SRB
Format: cell-based, human
Conditions: Homo sapiens
In short: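 80S14 (p21-deficient) cells seeded at 12,000 cells/well overnight, then exposed 5 days at 37 °C to serial dilutions (5 pM–50 μM or 170 pg/ml–10 μg/ml). TCA-fixed, sulforhodamine B-stained, absorbance at 560 nm; IC50 taken from cytotoxicity curves versus untreated controls.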

[1] = 80S14, 120 h, read-out: IC50 for 80S14 (uM)
[2] = 120 h, 80S14 (p21-deficient) cells, 5 days, SRB, class symbols, read-out: IC50 for 80S14

Compound	IC50 [1]	IC50 [2]
CC(C)OC(=O)Nc1cccc(-c2ccnc3c(C(=O)c4ccco4)cnn23)c1 [Example 299, Isopropyl 3-[3-(2-furoyl)pyrazolo[1,5-a]pyrimidin-7-yl]phenylcarbamate]	< 1 µM	
O=C(Nc1cccc(-c2ccnc3c(C(=O)c4ccco4)cnn23)c1)c1ccccc1 [Example 300, N-{3-[3-(2-Furoyl)pyrazolo[1,5-a]pyrimidin-7-yl]phenyl}benzamide]		1 to 10 µM
O=C(c1ccco1)c1cnn2c(-c3cccc(NC(=O)C4CCCC4)c3)ccnc12 [Example 302, N-{3-[3-(2-Furoyl)pyrazolo[1,5-a]pyrimidin-7-yl]phenyl}cyclopentanecarboxamide]		< 1 µM
CC(C)CC(=O)Nc1cccc(-c2ccnc3c(C(=O)c4ccoc4)cnn23)c1 [Example 304, N-{3-[3-(3-Furoyl)pyrazolo[1,5-a]pyrimidin-7-yl]phenyl}-3-methylbutanamide]	1 to 10 µM	
CC(C)OC(=O)Nc1cccc(-c2ccnc3c(C(=O)c4ccoc4)cnn23)c1 [Example 305, Isopropyl 3-[3-(3-furoyl)pyrazolo[1,5-a]pyrimidin-7-yl]phenylcarbamate]	1 to 10 µM	
COC(=O)c1cccc(-c2ccnc3c(C(=O)c4cccs4)cnn23)c1 [Example 306, Methyl 3-[3-(2-thienylcarbonyl)pyrazolo[1,5-a]pyrimidin-7-yl]benzoate]		10 to 50 µM
Cc1nn2c(-c3cccc(NC(=O)CC(C)C)c3)ccnc2c1C(=O)c1cccs1 [Example 307, 3-Methyl-N-{3-[2-methyl-3-(2-thienylcarbonyl)pyrazolo[1,5-a]pyrimidin-7-yl]phenyl}butanamide]		10 to 50 µM
Cc1nn2c(-c3cccc(NC(=O)OC(C)C)c3)ccnc2c1C(=O)c1cccs1 [Example 308, Isopropyl 3-[2-methyl-3-(2-thienylcarbonyl)pyrazolo[1,5-a]pyrimidin-7-yl]phenylcarbamate]		10 to 50 µM
Cc1ccc(-c2ccnc3c(C(=O)c4cccs4)cnn23)cc1NC(=O)c1ccccc1 [Example 309, N-{2-Methyl-5-[3-(2-thienylcarbonyl)pyrazolo[1,5-a]pyrimidin-7-yl]phenyl}benzamide]		1 to 10 µM
Cc1ccc(-c2ccnc3c(C(=O)c4cccs4)cnn23)cc1NC(=O)CC(C)C [Example 310, 3-Methyl-N-{2-methyl-5-[3-(2-thienylcarbonyl)pyrazolo[1,5-a]pyrimidin-7-yl]phenyl}butanamide]	1 to 10 µM	
COc1ccc(-c2ccnc3c(C(=O)c4cccs4)cnn23)cc1NC(=O)c1ccccc1 [Example 315, N-{2-Methoxy-5-[3-(2-thienylcarbonyl)pyrazolo[1,5-a]pyrimidin-7-yl]phenyl}benzamide]		1 to 10 µM
COc1ccc(-c2ccnc3c(C(=O)c4cccs4)cnn23)cc1NC(=O)OC(C)C [Example 316, Isopropyl 2-methoxy-5-[3-(2-thienylcarbonyl)pyrazolo[1,5-a]pyrimidin-7-yl]phenylcarbamate]		1 to 10 µM
COc1ccc(-c2ccnc3c(C(=O)c4cccs4)cnn23)cc1NC(=O)CC(C)C [Example 317, N-{2-Methoxy-5-[3-(2-thienylcarbonyl)pyrazolo[1,5-a]pyrimidin-7-yl]phenyl}-3-methylbutanamide]		1 to 10 µM
CC(C)CNC(=O)c1cccc(-c2ccnc3c(C(=O)c4cccs4)cnn23)c1 [Example 318, N-Isobutyl-3-[3-(2-thienylcarbonyl)pyrazolo[1,5-a]pyrimidin-7-yl]benzamide]		< 1 µM
CCCCNC(=O)c1cccc(-c2ccnc3c(C(=O)c4cccs4)cnn23)c1 [Example 319, N-Butyl-3-[3-(2-thienylcarbonyl)pyrazolo[1,5-a]pyrimidin-7-yl]benzamide]		< 1 µM
O=C(NC1CCCC1)c1cccc(-c2ccnc3c(C(=O)c4cccs4)cnn23)c1 [Example 320, N-Cyclopentyl-3-[3-(2-thienylcarbonyl)pyrazolo[1,5-a]pyrimidin-7-yl]benzamide]		< 1 µM
O=C(Nc1ccccc1)c1cccc(-c2ccnc3c(C(=O)c4cccs4)cnn23)c1 [Example 321, N-Phenyl-3-[3-(2-thienylcarbonyl)pyrazolo[1,5-a]pyrimidin-7-yl]benzamide]		< 1 µM
CC(C)NC(=O)c1cccc(-c2ccnc3c(C(=O)c4cccs4)cnn23)c1 [Example 322, N-Isopropyl-3-[3-(2-thienylcarbonyl)pyrazolo[1,5-a]pyrimidin-7-yl]benzamide]		< 1 µM
COc1ccc(-c2ccnc3c(C(=O)c4cccs4)cnn23)cc1NC(=O)NC(C)C [Example 323, N-Isopropyl-N′-{2-methoxy-5-[3-(2-thienylcarbonyl)pyrazolo[1,5-a]pyrimidin-7-yl]phenyl}urea]		1 to 10 µM
O=[N+]([O-])c1cccc(-c2ccnc3c(-c4ccsc4)cnn23)c1 [Example 325, 7-(3-Nitrophenyl)-3-(3-thienyl)pyrazolo[1,5-a]pyrimidine]		10 to 50 µM

Compound	IC50 [1]	IC50 [2]
Nc1cccc(-c2ccnc3c(Br)cnn23)c1 [Example 326, 3-(3-Bromopyrazolo[1,5-a]pyrimidin-7-yl)aniline]		10 to 50 µM
CC(C)COC(=O)Nc1cccc(-c2ccnc3c(Br)cnn23)c1 [Example 327, Isobutyl 3-(3-bromopyrazolo[1,5-a]pyrimidin-7-yl)phenylcarbamate]		10 to 50 µM
CC(C)CC(=O)Nc1cccc(-c2ccnc3c(Br)cnn23)c1 [Example 330, N-[3-(3-Bromopyrazolo[1,5-a]pyrimidin-7-yl)phenyl]-3-methylbutanamide]		10 to 50 µM
CC(C)CC(=O)Nc1cccc(-c2ccnc3c(-c4cccs4)cnn23)c1 [Example 333, 3-Methyl-N-[3-(3-thien-2-ylpyrazolo[1,5-a]pyrimidin-7-yl)phenyl]butanamide]		10 to 50 µM
O=C(c1cccs1)c1cnn2c(-c3cc([N+](=O)[O-])ccc3Cl)ccnc12 [Example 336, [7-(2-Chloro-5-nitrophenyl)pyrazolo[1,5-a]pyrimidin-3-yl](thien-2-yl)methanone]		10 to 50 µM
O=C(c1ccccn1)c1cnn2c(-c3cccc(NC(=O)C4CC4)c3)ccnc12 [Example 337, N-{3-[3-(Pyridin-2-ylcarbonyl)pyrazolo[1,5-a]pyrimidin-7-yl]phenyl}cyclopropanecarboxamide]		10 to 50 µM
C/C(=C\c1ccccc1)CNc1cccc(-c2ccnc3c(C(=O)c4cccs4)cnn23)c1 [Example 397, [7-(3-{[(2E)-2-Methyl-3-phenylprop-2-enyl]amino}phenyl)pyrazolo[1,5-a]pyrimidin-3-yl] (thien-2-yl)methanone]		10 to 50 µM
CC(CCNc1cccc(-c2ccnc3c(C(=O)c4cccs4)cnn23)c1)c1ccccc1 (stereo not drawn) [Example 400, (7-{3-[(3-Phenylbutyl)amino]phenyl}pyrazolo[1,5-a]pyrimidin-3-yl)(thien-2-yl)methanone]		1 to 10 µM
COc1cc(/C=C/CNc2cccc(-c3ccnc4c(C(=O)c5cccs5)cnn34)c2)ccc1O [Example 401, [7-(3-{[(2E)-3-(4-Hydroxy-3-methoxyphenyl)prop-2-enyl]amino}phenyl)pyrazolo[1,5-a]pyrimidin-3-yl](thien-2-yl)methanone]		10 to 50 µM
CCC(C)CNc1cccc(-c2ccnc3c(C(=O)c4cccs4)cnn23)c1 (stereo not drawn) [Example 402, (7-{3-[(2-Methylbutyl)amino]phenyl}pyrazolo[1,5-a]pyrimidin-3-yl)(thien-2-yl)methanone]		1 to 10 µM
CCC(CC)CNc1cccc(-c2ccnc3c(C(=O)c4cccs4)cnn23)c1 [Example 403, (7-{3-[(2-Ethylbutyl)amino]phenyl}pyrazolo[1,5-a]pyrimidin-3-yl)(thien-2-yl)methanone]		1 to 10 µM
CC(C)CNc1cccc(-c2ccnc3c(C(=O)c4cccs4)cnn23)c1 [Example 404, {7-[3-(Isobutylamino)phenyl]pyrazolo[1,5-a]pyrimidin-3-yl}(thien-2-yl)methanone]		1 to 10 µM
O=C(c1cccs1)c1cnn2c(-c3cccc(NC(=S)Nc4cccc(-c5ccnc6c(C(=O)c7cccs7)cnn56)c4)c3)ccnc12 [Example 406, N,N′-bis {3-[3-(Thien-2-ylcarbonyl)pyrazolo[1,5-a]pyrimidin-7-yl]phenyl}thiourea]		10 to 50 µM
CC(C)COC(=O)Nc1cccc(-c2ccnc3c(-c4cccs4)cnn23)c1 [Example 407, Isobutyl 3-(3-thien-2-ylpyrazolo[1,5-a]pyrimidin-7-yl)phenylcarbamate]		1 to 10 µM
O=C(c1cccs1)c1cnn2c(-c3cccc(NC(=O)C4CCNCC4)c3)ccnc12 [Example 408, N-{3-[3-(Thien-2-ylcarbonyl)pyrazolo[1,5-a]pyrimidin-7-yl]phenyl}piperidine-4-carboxamide]		1 to 10 µM
CCCCCC/C(=C\c1ccccc1)CNc1cccc(-c2ccnc3c(C(=O)c4cccs4)cnn23)c1 [Example 409, [7-(3-{[(2E)-2-Hexyl-3-phenylprop-2-enyl]amino}phenyl)pyrazolo[1,5-a]pyrimidin-3-yl] (thien-2-yl)methanone]		10 to 50 µM
CCCCC/C(=C\c1ccccc1)CNc1cccc(-c2ccnc3c(C(=O)c4cccs4)cnn23)c1 [Example 410, [7-(3-{[(2E)-2-Pentyl-3-phenylprop-2-enyl]amino}phenyl)pyrazolo[1,5-a]pyrimidin-3-yl](thien-2-yl)methanone]		10 to 50 µM
O=C(c1cccs1)c1cnn2c(-c3cccc(NC/C=C/c4ccccc4)c3)ccnc12 [Example 412, [7-(3-{[(2E)-3-Phenylprop-2-enyl]amino}phenyl)pyrazolo[1,5-a]pyrimidin-3-yl] (thien-2-yl)methanone]		10 to 50 µM
C/C(=C\c1ccc(C(C)(C)C)cc1)CNc1cccc(-c2ccnc3c(C(=O)c4cccs4)cnn23)c1 [Example 413, [7-(3-{[(2E)-3-(4-tert-Butylphenyl)-2-methylprop-2-enyl]amino}phenyl)pyrazolo[1,5-a]pyrimidin-3-yl](thien-2-yl)methanone]		10 to 50 µM
